Values quoted from earlier work, collected in patent US4983400A, “Controlled release combination of carbidopa/levodopa” (priority 1989, dated 1991).

What was measured:
[1] = in vivo

effect of high protein meals on plasma levodopa levels (human, in vivo, iv): without affecting plasma levodopa levels
Structure (SMILES): N[C@@H](Cc1ccc(O)c(O)c1)C(=O)O [levodopa]
motor oscillations (intravenous): reduces motor oscillations | effect of high protein meals on response (intravenous, high protein meals): decline in response | residual symptoms at optimal response (intravenous, some patients): either tremor and bradykinesia or mobility with dyskinesia | adverse reactions [1]: severe adverse reactions, especially emesis, were experienced
